Assays:
Wnt signal = assay: TOPFlash reporter gene activity test in HEK293T cells; assay type: cell-based
Method: The HEK293T cells used for the measurement of reporter gene activity were plated at 20 hours before transfection and cultured to about 50% coverage for the transfection. The transfection method was as described above. For HEK293T cells, transfection was performed according to 20 ng TOPFlash, 20 ng GFP and 460 ng lacZ per well, and Wnt3a or Nesfatin-1/NUCB2 protein was added at 18 hours after transfection to stimulate for 6-8 hours, and the cell was lysed with Boehringer Mannheim Luciferase Assay Kit (200 μl/well) for 15 minutes, 50 μl lysate was added in the fluorometer BIO-TEK Synergy2 (Gene Company Limited) to measure the GFP fluorescence intensity in the cell lysate as an internal standard, and then 20 μl luciferase substrate (Roche) was added for the reaction, the luciferase activity was detected in the chemiluminescence channel, and finally the GFP reading was used as an internal standard for homogenization.
We focus on the three small molecules HLY72, HLY103, and HSS49A (FIG. 3a). […] So that the first biochemical experiment design is: whether these three small molecules can compete for the binding of HLY179 to NUCB2 protein.

OB/OB obese model mice = assay: Weight loss in OB/OB obese model mice; assay type: in vivo, mouse
Excerpt: (§1) All animal experiments were approved by the Animal Management Committee of SIBCB. C57BL/6 mice were purchased from Lingchang company (normal mice and high-fat diet-induced obese mice), C57/BLJ6 (NUCB2 gene knockout mice for breeding and background purification) were purchased from Lingchang company, OB/OB mice were purchased from Slack company. A high-fat diet (45% kcal, D12451) for inducing obese mice was purchased from Research Diets. Starting from the sixth week, it was fed with high-fat diet for 14-25 weeks. The rest of the mice used normal diet (13.5% kcal). The mice were housed in the SPF grade animal house of SIBCB. The lights were turned off for 12 hours (19: 00-07: 00), and the lights were turned on for 12 hours (07: 00-19: 00).
(§2) Mice were intraperitoneally injected with DMSO or HLY72 (dissolved in DMSO) 25 μL within 2 hours before turning off the lamp. During the intragastric experiment, the high concentration of HLY72 dissolved in DMSO was dissolved in 10% cyclodextrin, and the total volume was 100 μL Volume by gavage, so that the final concentration of DMSO was less than 10%. The diet was weighed at the 3rd hour, the 6th hour, the 12th hour, and the 24th hour respectively after the lights out. The corresponding mouse body weight was also weighed at the same time before the daily administration. The fat content of mice was measured with the magnetic resonance fat content measuring instrument of the animal platform in SIBCB.
After obtaining the above results, we now begin to use the small molecule HLY72 in obese mouse models. We first chose the obese mouse model (OB/OB) caused by Leptin mutation. An important reason for the persistence of obesity is the resistance and tolerance to regulatory factors such as Insulin and Leptin. And we are very pleased with the fact that NUCB2 can reduce the food intake of Leptin receptor mutant Zucker rats. In this regard, we can reasonably speculate that the small molecule HLY72 should also have an effect on OB/OB mice. Sure enough, the injection of HLY72 has a significant weight loss effect on OB/OB mice.

mice = assay: Water consumption of mice; assay type: in vivo, mouse; settings: 20 mg/kg injection, three consecutive days
Method: Since OB/OB mice are a diabetic mouse model, they have the characteristics of polyphagia, polydipsia, and polyuria. […] Again whether HLY72 had the effect of reducing drinking water in mice was tested. […] For the mice of high-fat diet (HFD), the three-day water consumption is only 26.38%±2.06% of the control group (FIG. 9). Therefore, HLY72, like NUCB2/Nesfatin-1, has the effect of reducing water consumption in mice.

[1] = tested on: high-fat-induced obese mice; assay: Weight loss in high-fat-induced obese mice, periodic intermittent administration; assay type: in vivo, mouse; settings: 20 mg/kg
Excerpt: as §1, §2
According to the previous results, it is considered that HLY72 should not be used continuously for a long time. In view of the fact that many mechanisms of NUCB2 functioning are still unclear, the simplest intermittent drug administration method was selected, that is, the drug was administered for 3 days, stopped for 4 days, one dosing cycle per week, and repeated for 3 courses (FIG. 10a).
In the high-fat-induced obese mouse model, three days after the first injection of HLY72, the body weight of the mice is decreased from 33.56±0.63 g to 31.61±0.74 g, and three days after the second administration, the body weight of mice is decreased from 31.23±0.57 g to 29.36±0.58 g, three days after the third administration, the body weight of mice is decreased from 29.39±0.51 g to 27.80±0.62 g, at the end of 21 days after 3 cycles, the overall weight of the mice is decreased from 33.56±0.63 g to 27.65±0.54 g (FIG. 10b). The whole process corresponds to 16.88%±0.51% of the total weight loss (FIG. 10c).

high-fat diet obese mice = assay: Fat and muscle content (magnetic resonance) of high-fat diet obese mice; assay type: in vivo, mouse
Method: as §2
In the experiment, high-fat diets were used to feed obese mice weighing about 40 grams for 22 weeks, according to the way used in the previous 3 courses.

[2] = OB/OB mice, 20 mg/kg injection, 7 consecutive days

SMILES: C=Cc1cccc2c1N(C)Cc1cc3c(cc1-2)OCO3 [HLY72]
- activity of Wnt signal activation (Wnt signal): none of them have the activity of Wnt signal activation
- urine of mice (OB/OB obese model mice; OB/OB mice injected with HLY72): significantly reduced
- daily food intake compared with the DMSO group (OB/OB obese model mice; OB/OB mice, 20 mg/kg injection): significantly reduced
- body weight after treatment (OB/OB obese model mice; [2]): 37.73 ± 0.87 g
- reduction in total body weight (OB/OB obese model mice; [2]): 10.15%±0.87%
- body weight before treatment (OB/OB obese model mice; OB/OB mice, 20 mg/kg injection, start): 42.02 ± 1.01 g
- three-day water consumption of treated mice, percent of control group (mice; high-fat diet (HFD) mice): 26.38%±2.06%
- three-day water consumption of treated mice, percent of control group (mice; normal chow diet (NCD) mice): 39.68%±2.29%
- average daily food intake in the three administration periods compared with the DMSO group [1]: significant decrease
- overall weight at the end of 21 days after 3 cycles ([1]; 3 cycles): 27.65 ± 0.54 g
- body weight before the first administration ([1]; 3 days on / 4 days off, start): 33.56 ± 0.63 g
- body weight three days after the first injection ([1]; course 1): 31.61 ± 0.74 g
- body weight before the second administration ([1]; course 2): 31.23 ± 0.57 g
- body weight three days after the second administration ([1]; course 2): 29.36 ± 0.58 g
- body weight before the third administration ([1]; course 3): 29.39 ± 0.51 g
- body weight three days after the third administration ([1]; course 3): 27.80 ± 0.62 g
- total weight loss ([1]; whole process, 21 days, 3 cycles): 16.88%±0.51%
- weight of mice (high-fat diet obese mice; obese mice about 40 g, high-fat diet 22 weeks, 20 mg/kg courses of injection): significantly reduce
- increase of the proportion of muscle (high-fat diet obese mice; obese mice, 20 mg/kg courses): about 9 percentage points
- fat content (high-fat diet obese mice; obese mice, MRI fat content measuring instrument, 20 mg/kg courses): significantly reduced
